Source: PubChem BioAssay (NCI)
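How tested: cells in 96-well plates exposed to compound for 48 hours at five concentrations. GI50 = concentration required for 50% inhibition of growth. The concentration for full growth arrest is given as TGI.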 Where a SMILES comes first, the peptide text is derived from it. The star is where a group is joined. Boc = CC(C)(C)OC(=O)*; OBn = c1ccc(CO*)cc1

Legend:
Experiment in all cases: growth of human tumour cells (NCI), 48 h
HCT-116 colon = test system: HCT-116 colon
LOX IMVI melanoma = test system: LOX IMVI melanoma
NCI-H460 lung = test system: NCI-H460 lung
PC-3 prostate = test system: PC-3 prostate
SF-295 CNS = test system: SF-295 CNS
SF-539 CNS = test system: SF-539 CNS
SK-MEL-5 melanoma = test system: SK-MEL-5 melanoma
SNB-19 CNS = test system: SNB-19 CNS
SW-620 colon = test system: SW-620 colon
UACC-62 melanoma = test system: UACC-62 melanoma

| Compound | TGI (HCT-116 colon) [µM] | TGI (LOX IMVI melanoma) [µM] | TGI (NCI-H460 lung) [µM] | TGI (PC-3 prostate) [µM] | TGI (SF-295 CNS) [µM] | TGI (SF-539 CNS) [µM] | TGI (SK-MEL-5 melanoma) [µM] | TGI (SNB-19 CNS) [µM] | TGI (SW-620 colon) [µM] | TGI (UACC-62 melanoma) [µM] | GI50 (HCT-116 colon) [µM] | GI50 (LOX IMVI melanoma) [µM] | GI50 (NCI-H460 lung) [µM] | GI50 (PC-3 prostate) [µM] | GI50 (SF-295 CNS) [µM] | GI50 (SF-539 CNS) [µM] | GI50 (SK-MEL-5 melanoma) [µM] | GI50 (SW-620 colon) [µM] | GI50 (UACC-62 melanoma) [µM] |
| --- | --- | --- | --- | --- | --- | --- | --- | --- | --- | --- | --- | --- | --- | --- | --- | --- | --- | --- | --- |
| Nc1cc(N2CCCC2)nc(=O)n1Cc1ccccc1 | > 100 | > 100 | > 100 | > 100 | > 100 | > 100 | > 100 | > 100 | > 100 |  |  |  |  |  |  |  |  |  |  |
| CSC1=NS(=O)(=O)c2cc(C(=O)NN(C)C(=O)c3cc4c(cc3Cl)SC(SC)=NS4(=O)=O)c(Cl)cc2S1 | > 10 | > 10 | > 10 | > 10 | > 10 | > 10 | > 10 | > 10 | > 10 |  |  |  |  |  |  |  |  |  |  |
| OC12CC/C(=N/OCc3ccccc3)CC1c1ccccc12 (centres undefined) | > 100 | > 100 | > 100 |  | > 100 | > 100 | > 100 | > 100 |  | > 100 |  |  |  |  |  |  |  |  |  |
| CC(C)(C)OC(=O)NC(Cc1ccccc1)C(=O)NC(Cc1ccccc1)C(=O)NCC(=O)OCc1ccccc1 (stereo not drawn) (Boc-Phe-Phe-Gly-OBn; configuration not given here) | 40.2 | 24.5 | 49.9 | 35.8 |  | 44.1 |  | > 100 | 28.4 | 38.7 |  |  |  |  |  |  |  |  |  |
| CC(=O)OC1[C@H]2c3cc4c(cc3CN3CCC(=C[C@@H]1O)C23)OCO4 (some centres undefined) |  | > 100 | > 100 |  | > 100 | > 100 |  | > 100 | > 100 | > 100 |  |  |  |  |  |  |  |  |  |
| CC(=O)O[C@H]1C(=O)[C@@]2(C)[C@H]([C@H](OC(=O)c3ccccc3)[C@]3(O)C[C@H](OC(=O)[C@H](O)[C@@H](NC(=O)CC(C)(C)C)c4ccccc4)C(C)=C1C3(C)C)C1(OC(C)=O)CO[C@@H]1C[C@@H]2O (some centres undefined) | > 3.34 | > 10 | > 10 | > 10 |  | 0.00453 | > 10 | > 10 | > 10 | > 10 |  |  |  |  |  |  |  |  |  |
| COc1ccc(C(=O)N2c3ccccc3Sc3ccccc32)c(C(F)(F)F)c1 | > 100 | > 100 | > 100 | > 100 | > 100 | 0.995 | 16.6 |  | > 100 | > 100 | 0.505 | 0.516 | 0.383 | 0.426 | 0.372 | 0.271 | 0.692 | 0.425 | 0.438 |
| Cn1nc(S(N)(=O)=O)s/c1=N/C(N)=S | > 100 | > 100 | > 100 |  | > 100 | > 100 | > 100 | > 100 | > 100 | > 100 |  |  |  |  |  |  |  |  |  |
| COc1ccc(/C=C2\N=C(c3ccccc3)N(C3Nc4cc5c(cc4S3)NC(N3C(=O)/C(=C/c4ccc(OC)cc4)N=C3c3ccccc3)S5)C2=O)cc1 (centres undefined) | > 100 | > 100 | > 100 | > 100 | > 100 | 29.2 | > 100 |  | > 100 |  |  |  |  |  |  |  |  |  |  |
| c1ccc2c(Cc3nnc4sc(SSc5nn6c(Cc7c[nH]c8ccccc78)nnc6s5)nn34)c[nH]c2c1 | 29.4 |  | 89.3 | > 100 | 44.1 | 50.8 | 24.2 | > 100 | 37.6 | 33.7 |  |  |  |  |  |  |  |  |  |
